Holding throughout (format): biochemical
Experiment [1] addresses T1, Btk (Homo sapiens, UniProt Q06187). In words: Btk in vitro inhibitory activity (Method A, B or C). To be noted: one of the methods of Example 53a, 53b, 53c. Also noted: purified from insect cells as a full-length construct containing a N-terminal 6×-His tag; His6 (N); made in house; host or cells: insect cells (baculovirus, Sf21). Here is the method: Btk kinase activity is determined using a time-resolved fluorescence resonance energy transfer (TR-FRET) methodology. Measurements are performed in a reaction volume of 50 μL using 96-well assay plates. Kinase enzyme, inhibitor, ATP (at the Km for the kinase), and 1 μM peptide substrate (Biotin-AVLESEEELYSSARQ-NH2 (SEQ ID NO: 1)) are incubated in a reaction buffer composed of 20 mM Tris, 50 mM NaCl, MgCl2 (5-25 mM depending on the kinase), MnCl2 (0-10 mM), 1 mM DTT, 0.1 mM EDTA, 0.01% bovine serum albumin, 0.005% Tween-20, and 10% DMSO at pH 7.4 for one hour. The reaction is quenched by the addition of 1.2 equivalents of EDTA (relative to divalent cation) in 25 μL of 1× Lance buffer (Perkin-Elmer). Streptavidin-APC (Perkin-Elmer) and Eu-labeled p-Tyr100 antibody (Perkin-Elmer) in 1× Lance buffer are added in a 25 μL volume to give final concentrations of 100 nM and 2.5 nM, respectively, and the mixture is allowed to incubate for one hour. The TR-FRET signal is measured on a multimode plate reader with an excitation wavelength (λEx) of 330 nm and detection wavelengths (λEm) of 615 and 665 nm. Activity is determined by the ratio of the fluorescence at 665 nm to that at 615 nm. For each compound, enzyme activity is measured at various concentrations of compound. Negative control reactions are performed in the absence of inhibitor in replicates of six, and two no-enzyme controls are used to determine baseline fluorescence levels. Inhibition constants, Ki(app), ware obtained using the program BatchKi (Kuzmic et al. (2000), Anal. Biochem. 286:45-50). IC50s are obtained according to the equation: IC50={Ki(app)/1+[ATP]/Km^ATP)}+[E]total/2;
For all kinases, [ATP]=Km^ATP, [Btk]total=0.5 nM and [Lck]total=6 nM.
Kinase activity is measured in vitro using electrophoretic mobility shift assay. The kinase reactions are assembled in a total volume of 25 μL in 384 well plates. The reactions comprise: BTK enzyme (1 nM, N-terminal His6-tagged, recombinant, full-length, human BTK purified from baculovirus Sf21 insect cell system), inhibitor, ATP (16 μM, the apparent Km for the kinase), fluorescently labeled peptide substrate (1 μM, FAM-GEEPLYWSFPAKKK-NH2 (SEQ ID NO: 2)) in a reaction buffer composed of 100 mM HEPES, pH7.5, 5 mM MgCl2 1 mM DTT, 0.1% bovine serum albumin, 0.01% Triton X-100, and 1% DMSO. The reaction is incubated for one hour and is quenched by the addition of 45 μL of termination buffer (100 mM HEPES, pH7.5, 0.01% Triton X-100, 30 mM EDTA). The terminated reactions are analyzed using 12 channel LabChip® 3000 microfluidic detection instrument (Caliper Life Sciences). The enzymatic phosphorylation of the peptide results in a change in net charge, enabling electrophoretic separation of product from substrate peptide. As substrate and product peptides are separated, two peaks of fluorescence are observed. Change in the relative fluorescence intensity of the substrate and product peaks is the parameter measured, reflecting enzyme activity. In the presence of an inhibitor, the ratio between product and substrate is altered: the signal of the product decreases, while the signal of the substrate increases.
Activity in each sample is determined as the product to sum ratio (PSR):P/(S+P), where P is the peak height of the product peptide and S is the peak height of the substrate peptide. For each compound, enzyme activity is measured at various concentrations (12 concentrations of compound spaced by 3× dilution intervals). Negative control samples (0%−inhibition in the absence of inhibitor) and positive control samples (100%−inhibition, in the presence of 20 mM EDTA) are assembled in replicates of four and are used to calculate %−inhibition values for each inhibitor at each concentration. Percent inhibition (Pinh) is determined using following equation: […]

Experiment [2] has as its target T1, Btk. In words: Inhibition of a panel of kinases: Btk. The following applies: kinase panel, Table 2. As for the experimental part: (§1) The degree of inhibition of a panel of kinases is determined using assays similar to the kinase assay described in Example 53.
In a further experiment the target is LCK (Homo sapiens, UniProt P06239). In words: Inhibition of a panel of kinases: LCK. The following applies: kinase panel, Table 2. Here is the method:
as §1

The next experiment concerns the target EGFR (Homo sapiens, UniProt P00533). Briefly: Inhibition of a panel of kinases: EGFR. The following applies: kinase panel, Table 2. As for the experimental part: as §1

T1 sequence (Q06187 whole entry): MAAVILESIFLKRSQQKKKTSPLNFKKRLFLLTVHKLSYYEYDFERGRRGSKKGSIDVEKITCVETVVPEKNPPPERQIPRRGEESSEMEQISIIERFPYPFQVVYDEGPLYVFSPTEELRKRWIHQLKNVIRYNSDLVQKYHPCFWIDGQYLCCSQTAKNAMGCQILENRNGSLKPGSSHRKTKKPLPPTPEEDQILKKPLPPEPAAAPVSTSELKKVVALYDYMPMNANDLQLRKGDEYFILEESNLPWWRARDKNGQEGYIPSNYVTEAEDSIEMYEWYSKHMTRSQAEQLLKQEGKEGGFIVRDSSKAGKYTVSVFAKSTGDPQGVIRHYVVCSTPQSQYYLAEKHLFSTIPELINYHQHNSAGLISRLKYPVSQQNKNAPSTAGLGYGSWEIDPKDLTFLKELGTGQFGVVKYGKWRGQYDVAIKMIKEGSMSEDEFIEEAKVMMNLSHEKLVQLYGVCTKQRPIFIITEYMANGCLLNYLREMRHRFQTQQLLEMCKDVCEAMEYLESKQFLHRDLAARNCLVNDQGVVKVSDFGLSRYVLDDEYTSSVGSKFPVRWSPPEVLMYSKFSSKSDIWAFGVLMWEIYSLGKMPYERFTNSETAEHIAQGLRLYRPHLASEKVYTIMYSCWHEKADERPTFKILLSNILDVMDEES
EGFR, sequence (P00533 25-1210, species assumed): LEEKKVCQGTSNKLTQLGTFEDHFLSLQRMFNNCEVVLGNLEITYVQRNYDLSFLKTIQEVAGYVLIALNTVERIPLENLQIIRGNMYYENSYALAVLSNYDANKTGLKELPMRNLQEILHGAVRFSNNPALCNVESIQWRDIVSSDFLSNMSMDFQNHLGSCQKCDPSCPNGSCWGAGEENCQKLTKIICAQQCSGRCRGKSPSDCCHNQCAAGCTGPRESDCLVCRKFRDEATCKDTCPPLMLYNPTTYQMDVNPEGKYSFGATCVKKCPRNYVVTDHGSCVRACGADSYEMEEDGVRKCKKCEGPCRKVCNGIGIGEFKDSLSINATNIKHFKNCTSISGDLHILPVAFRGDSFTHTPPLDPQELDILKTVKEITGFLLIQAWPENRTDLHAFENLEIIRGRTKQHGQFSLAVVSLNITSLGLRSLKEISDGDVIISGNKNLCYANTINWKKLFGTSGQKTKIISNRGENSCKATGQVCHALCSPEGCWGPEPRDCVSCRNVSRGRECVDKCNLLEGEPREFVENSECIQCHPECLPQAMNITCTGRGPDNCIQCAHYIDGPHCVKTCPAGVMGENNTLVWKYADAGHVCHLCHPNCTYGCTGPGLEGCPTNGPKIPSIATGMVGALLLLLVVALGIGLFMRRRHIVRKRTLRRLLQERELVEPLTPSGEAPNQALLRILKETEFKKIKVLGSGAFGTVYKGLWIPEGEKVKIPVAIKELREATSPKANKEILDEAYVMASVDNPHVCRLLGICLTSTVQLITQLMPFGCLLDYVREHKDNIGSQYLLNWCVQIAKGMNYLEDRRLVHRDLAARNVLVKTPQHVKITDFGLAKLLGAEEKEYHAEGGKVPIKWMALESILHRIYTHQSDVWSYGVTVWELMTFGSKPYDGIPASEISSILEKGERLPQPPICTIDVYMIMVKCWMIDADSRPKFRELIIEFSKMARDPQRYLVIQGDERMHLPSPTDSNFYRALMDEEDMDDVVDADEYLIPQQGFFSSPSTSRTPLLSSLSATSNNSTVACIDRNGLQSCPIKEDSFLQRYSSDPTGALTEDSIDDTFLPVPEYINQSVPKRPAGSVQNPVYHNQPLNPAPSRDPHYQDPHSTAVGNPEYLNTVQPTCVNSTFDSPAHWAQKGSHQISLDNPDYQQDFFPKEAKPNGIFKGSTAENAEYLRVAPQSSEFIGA
LCK, sequence (P06239 whole entry, species assumed): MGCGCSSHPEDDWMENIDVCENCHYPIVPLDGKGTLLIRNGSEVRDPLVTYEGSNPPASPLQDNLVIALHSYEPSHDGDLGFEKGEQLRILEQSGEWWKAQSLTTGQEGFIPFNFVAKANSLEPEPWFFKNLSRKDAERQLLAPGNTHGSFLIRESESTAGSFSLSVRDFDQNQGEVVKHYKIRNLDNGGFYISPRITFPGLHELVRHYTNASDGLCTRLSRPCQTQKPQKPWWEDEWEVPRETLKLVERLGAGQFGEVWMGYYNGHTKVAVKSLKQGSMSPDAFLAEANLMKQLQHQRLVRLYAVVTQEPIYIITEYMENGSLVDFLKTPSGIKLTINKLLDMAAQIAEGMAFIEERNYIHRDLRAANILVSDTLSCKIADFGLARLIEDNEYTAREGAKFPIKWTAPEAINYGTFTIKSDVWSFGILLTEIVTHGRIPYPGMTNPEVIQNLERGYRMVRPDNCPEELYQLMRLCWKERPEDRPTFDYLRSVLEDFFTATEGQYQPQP

For the molecule `C=CC(=O)N1CCC[C@@H](n2nc(-c3ccc(C(=O)Nc4cc(C(C)C)ccn4)cc3)c3c(N)ncnc32)C1` [Compound ID 28, (R)-4-(1-(1-acryloylpiperidin-3-yl)-4-amino-1H-pyrazolo[3,4-d]pyrimidin-3-yl)-N-(4-isopropylpyridin-2-yl)benzamide], the IC50 at Btk [1] was at most 10 nM.

For the molecule `C=CC(=O)N1CC[C@@H](n2nc(-c3ccc(C(=O)Nc4cc(C#N)ccn4)cc3)c3c(N)ncnc32)C1` [Compound ID 24, (R)-4-(1-(1-acryloylpyrrolidin-3-yl)-4-amino-1H-pyrazolo[3,4-d]pyrimidin-3-yl)-N-(4-cyanopyridin-2-yl)benzamide], the IC50 on Btk [1] is at most 10 nM.

Turning to `CC#CC(=O)N1CCC[C@@H](n2nc(-c3ccc(C(=O)Nc4cc(C)ccn4)cc3)c3c(N)ncnc32)C1` [Compound ID 11, (R)-4-(4-amino-1-(1-but-2-ynoylpiperidin-3-yl)-1H-pyrazolo[3,4-d]pyrimidin-3-yl)-N-(4-methylpyridin-2-yl)benzamide], the IC50 on Btk [2] was at most 10 nM; against LCK, 10 to 100 nM; on EGFR it was 10 to 100 nM; against Btk [1], at most 10 nM.

As for `C=CC(=O)N1CCC[C@@H](n2nc(-c3ccc(C(=O)Nc4ccccn4)cc3)c3c(N)ncnc32)C1` [Compound ID 25, (R)-4-(1-(1-acryloylpiperidin-3-yl)-4-amino-1H-pyrazolo[3,4-d]pyrimidin-3-yl)-N-(pyridin-2-yl)benzamide], the half-inhibitory concentration (IC50) at Btk [1] was at most 10 nM.

For the molecule `COCC#CC(=O)N1CC[C@@H](n2nc(-c3ccc(C(=O)Nc4cc(C(F)(F)F)ccn4)cc3)c3c(N)ncnc32)C1` [Compound ID 50, (R)-4-(4-amino-1-(1-(4-methoxybut-2-ynoyl)pyrrolidin-3-yl)-1H-pyrazolo[3,4-d]pyrimidin-3-yl)-N-(4-(trifluoromethyl)pyridin-2-yl)benzamide], the IC50 against Btk [1] was at most 10 nM.

For the molecule `Nc1ncnc2c1c(-c1ccc(C(=O)Nc3cc(C(F)(F)F)ccn3)cc1)nn2[C@@H]1CCN(C(=O)C#CCO)C1` [Compound ID 49, (R)-4-(4-amino-1-(1-(4-hydroxybut-2-ynoyl)pyrrolidin-3-yl)-1H-pyrazolo[3,4-d]pyrimidin-3-yl)-N-(4-(trifluoromethyl)pyridin-2-yl)benzamide], the IC50 against Btk [1] was at most 10 nM.

Take `CC#CC(=O)N1CCC[C@@H](n2nc(-c3ccc(C(=O)Nc4cc(CCC)ccn4)cc3)c3c(N)ncnc32)C1` [Compound ID 13, (R)-4-(4-amino-1-(1-but-2-ynoylpiperidin-3-yl)-1H-pyrazolo[3,4-d]pyrimidin-3-yl)-N-(4-propylpyridin-2-yl)benzamide]: the half-inhibitory concentration (IC50) against Btk [2] is at most 10 nM; at LCK, at most 10 nM; against EGFR it was 100 to 1000 nM; at Btk [1], at most 10 nM.

For the molecule `CC#CC(=O)N1CC[C@@H](n2nc(-c3ccc(C(=O)Nc4nccs4)cc3)c3c(N)ncnc32)C1` [Compound ID 15, (R)-4-(4-amino-1-(1-but-2-ynoylpyrrolidin-3-yl)-1H-pyrazolo[3,4-d]pyrimidin-3-yl)-N-(thiazol-2-yl)benzamide], the 50% inhibitory concentration (IC50) against Btk [2] is at most 10 nM; against LCK, 100 to 1000 nM; on EGFR it was at most 10 nM; against Btk [1], at most 10 nM.

As to `N#CC1(C(=O)N2CC[C@@H](n3nc(-c4ccc(C(=O)Nc5ccccn5)cc4)c4c(N)ncnc43)C2)CC1` [Compound ID 52, (R)-4-(4-amino-1-(1-(1-cyanocyclopropanecarbonyl)pyrrolidin-3-yl)-1H-pyrazolo[3,4-d]pyrimidin-3-yl)-N-(pyridin-2-yl)benzamide], the IC50 against Btk [2] was 100 to 1000 nM; at Btk [1], over 10 nM.

For `C=CC(=O)N1CCC[C@@H](n2nc(-c3ccc(C(=O)Nc4cc(C#N)ccn4)cc3)c3c(N)ncnc32)C1` [Compound ID 29, (R)-4-(1-(1-acryloylpiperidin-3-yl)-4-amino-1H-pyrazolo[3,4-d]pyrimidin-3-yl)-N-(4-cyanopyridin-2-yl)benzamide], the IC50 at Btk [1] was at most 10 nM.

For `C=CC(=O)N1CC[C@@H](n2nc(-c3ccc(C(=O)Nc4ccccn4)cc3)c3c(N)ncnc32)C1` [Compound ID 22, (R)-4-(1-(1-acryloylpyrrolidin-3-yl)-4-amino-1H-pyrazolo[3,4-d]pyrimidin-3-yl)-N-(pyridin-2-yl)benzamide], the IC50 at Btk [2] was at most 10 nM; at LCK it was 100 to 1000 nM; on EGFR, at most 10 nM; against Btk [1] it was at most 10 nM.

With `CC#CC(=O)N1CCC[C@@H](n2nc(-c3ccc(C(=O)Nc4ncc(C)s4)cc3)c3c(N)ncnc32)C1` [Compound ID 17, (R)-4-(4-amino-1-(1-but-2-ynoylpiperidin-3-yl)-1H-pyrazolo[3,4-d]pyrimidin-3-yl)-N-(5-methylthiazol-2-yl)benzamide], the half-maximal inhibitory concentration (IC50) against Btk [2] is at most 10 nM; on LCK it was 100 to 1000 nM; on EGFR, at most 10 nM; against Btk [1] it was at most 10 nM.

In turn, `C/C=C/C(=O)N1CC[C@@H](n2nc(-c3ccc(C(=O)Nc4cc(C)ccn4)cc3)c3c(N)ncnc32)C1` [Compound ID 32, (R,E)-4-(4-amino-1-(1-but-2-enoylpyrrolidin-3-yl)-1H-pyrazolo[3,4-d]pyrimidin-3-yl)-N-(4-methylpyridin-2-yl)benzamide] registered an IC50 against Btk [1] of at most 10 nM.

Consider `CC#CC(=O)N1CCC[C@@H](n2nc(-c3ccc(C(=O)Nc4nccs4)cc3)c3c(N)ncnc32)C1` [Compound ID 16, (R)-4-(4-amino-1-(1-but-2-ynoylpiperidin-3-yl)-1H-pyrazolo[3,4-d]pyrimidin-3-yl)-N-(thiazol-2-yl)benzamide], for which the IC50 on Btk [2] is at most 10 nM; against LCK, 10 to 100 nM; on EGFR it was 10 to 100 nM; against Btk [1] it was at most 10 nM.

On to `Nc1ncnc2c1c(-c1ccc(C(=O)Nc3ccccn3)cc1)nn2[C@@H]1CCN(C(=O)C#CCO)C1` [Compound ID 19, (R)-4-(4-amino-1-(1-(4-hydroxybut-2-ynoyl)pyrrolidin-3-yl)-1H-pyrazolo[3,4-d]pyrimidin-3-yl)-N-(pyridin-2-yl)benzamide], for which the figures for the IC50 against Btk [2], at LCK and against EGFR were at most 10 nM, 100 to 1000 nM and 10 to 100 nM, respectively.

Consider `CC(C)=CC(=O)N1CC[C@@H](n2nc(-c3ccc(C(=O)Nc4cc(C)ccn4)cc3)c3c(N)ncnc32)C1` [Compound ID 33, (R)-4-(4-amino-1-(1-(3-methylbut-2-enoyl)pyrrolidin-3-yl)-1H-pyrazolo[3,4-d]pyrimidin-3-yl)-N-(4-methylpyridin-2-yl)benzamide], for which the half-maximal inhibitory concentration (IC50) against Btk [1] was over 10 nM.

With `COCC#CC(=O)N1CC[C@@H](n2nc(-c3ccc(C(=O)Nc4ccccn4)cc3)c3c(N)ncnc32)C1` [Compound ID 18, (R)-4-(4-amino-1-(1-(4-methoxybut-2-ynoyl)pyrrolidin-3-yl)-1H-pyrazolo[3,4-d]pyrimidin-3-yl)-N-(pyridin-2-yl)benzamide], the concentration for half-maximal inhibition (IC50) was at most 10 nM on Btk [2], 10 to 100 nM at LCK and at most 10 nM against EGFR.

The values above are taken from US9533991B2, “Inhibitors of Bruton's tyrosine kinase” (PHARMACYCLICS LLC, priority 2014, dated 2017).
